Test results: US8658604B2, “Template-fixed beta-hairpin peptidomimetics with protease inhibitory activity” (Polyphor Ltd, priority 2005, dated 2014)
Where a SMILES comes first, the peptide text is derived from it.

Key:
[1] = target: T1, Chymase, from human skin (Homo sapiens, UniProt P23946); assay: Enzymatic assay, chymase
T1 sequence (P23946 22-247): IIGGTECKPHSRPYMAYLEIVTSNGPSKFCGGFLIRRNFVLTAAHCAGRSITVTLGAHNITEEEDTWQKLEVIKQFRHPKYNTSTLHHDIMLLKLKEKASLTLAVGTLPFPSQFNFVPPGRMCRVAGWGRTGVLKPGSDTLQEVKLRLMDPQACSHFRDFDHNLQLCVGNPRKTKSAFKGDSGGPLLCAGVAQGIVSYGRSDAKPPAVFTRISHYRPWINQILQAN

[2] = target: T2, Elastase from human neutrophils (Homo sapiens, UniProt P08246); assay: Enzymatic assay, elastase; conditions: for Elastase at 100 μM %: at 100 μM (stated in cell instead of IC50); for IC50: Elastase IC50
T2 sequence (P08246 30-267): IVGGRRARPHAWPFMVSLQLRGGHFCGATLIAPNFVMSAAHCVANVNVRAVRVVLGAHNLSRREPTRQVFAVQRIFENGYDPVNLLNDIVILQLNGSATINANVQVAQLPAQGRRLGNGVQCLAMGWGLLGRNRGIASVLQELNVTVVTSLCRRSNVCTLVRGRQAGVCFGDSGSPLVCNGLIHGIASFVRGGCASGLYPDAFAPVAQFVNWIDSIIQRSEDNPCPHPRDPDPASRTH

[3] = target: Trypsin, from human pancreas (Homo sapiens, UniProt P07477); assay: Enzymatic assay, trypsin
[4] = target: T3, CathepsinG, from human neutrophils (Homo sapiens, UniProt P08311); assay: Enzymatic assay, cathepsin G; conditions: Cathepsin G IC50
T3 sequence (P08311 21-244): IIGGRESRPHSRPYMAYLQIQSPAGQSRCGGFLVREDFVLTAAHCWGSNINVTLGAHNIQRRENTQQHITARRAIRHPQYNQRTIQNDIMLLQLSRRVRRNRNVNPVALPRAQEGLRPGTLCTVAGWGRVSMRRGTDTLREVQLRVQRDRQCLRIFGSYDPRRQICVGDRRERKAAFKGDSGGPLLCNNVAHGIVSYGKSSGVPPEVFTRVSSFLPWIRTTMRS

[5] = target: Chymotrypsin, from human pancreas (Homo sapiens, UniProt P17538); assay: Enzymatic assay, chymotrypsin
[6] = system: Tryptase, from human lung; assay: Enzymatic assay, tryptase

Chymotrypsin, from human pancreas, sequence (P17538 19-263): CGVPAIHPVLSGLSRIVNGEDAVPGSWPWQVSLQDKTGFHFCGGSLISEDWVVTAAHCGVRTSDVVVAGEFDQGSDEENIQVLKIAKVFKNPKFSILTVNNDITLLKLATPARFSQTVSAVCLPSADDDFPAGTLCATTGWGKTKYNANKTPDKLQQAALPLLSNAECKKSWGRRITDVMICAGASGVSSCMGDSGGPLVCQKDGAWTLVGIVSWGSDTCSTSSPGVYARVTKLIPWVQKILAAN

SMILES	Trypsin at 100 μM % [3] [%]	IC50 [4] [µM]	Chymotrypsin at 100 μM % [5] [%]	IC50 [2] [µM]	Tryptase At 100 μM % ([6]; at 100 μM) [%]	other results
CCCC[C@@H]1NC(=O)[C@@H]2CCCN2C(=O)[C@H]2CCCN2C(=O)[C@H](CO)NC(=O)[C@@H]2CSSC[C@H](NC1=O)C(=O)N[C@@H]([C@@H](C)O)C(=O)N[C@@H](CCCCN)C(=O)N[C@@H](CO)C(=O)N[C@@H](CC(=O)O)C(=O)N1CCC[C@H]1C(=O)N1CCC[C@H]1C(=O)N[C@@H]([C@@H](C)CC)C(=O)N2 [Ex. 10] (HELM PEPTIDE1{[Nle].C.T.K.S.D.P.P.I.C.S.[dP].P}$PEPTIDE1,PEPTIDE1,2:R3-10:R3|PEPTIDE1,PEPTIDE1,1:R1-13:R2$$$V2.0)	89.9	0.075				Chymase at 100 μM % [1]: 9.4%; Elastase at 100 μM % [2]: 0.3 at %
CC[C@H](C)[C@@H]1NC(=O)[C@@H]2CCCN2C(=O)[C@@H]2CCCN2C(=O)[C@H](CC(=O)O)NC(=O)[C@H](CO)NC(=O)[C@H](CCCCN)NC(=O)[C@H]([C@@H](C)O)NC(=O)[C@@H]2CSSC[C@H](NC1=O)C(=O)N[C@@H](CCCNC(=N)N)C(=O)N1CCC[C@@H]1C(=O)N1CCC[C@H]1C(=O)N[C@@H](Cc1ccccc1Cl)C(=O)N2 [Ex. 13] (HELM PEPTIDE1{[O=C([C@H](Cc1ccccc1Cl)N[*:1])[*:2]].C.T.K.S.D.P.P.I.C.R.[dP].P}$PEPTIDE1,PEPTIDE1,2:R3-10:R3|PEPTIDE1,PEPTIDE1,1:R1-13:R2$$$V2.0)	95.0	0.1				Chymase at 100 μM % [1]: 19.9%; Elastase at 100 μM % [2]: 8.2 at %
CC[C@H](C)[C@@H]1NC(=O)[C@@H]2CCCN2C(=O)[C@@H]2CCCN2C(=O)[C@H](CC(=O)O)NC(=O)[C@H](CO)NC(=O)[C@H](CCCCN)NC(=O)[C@H]([C@@H](C)O)NC(=O)[C@@H]2CSSC[C@H](NC1=O)C(=O)N[C@@H](CO)C(=O)N1CCC[C@@H]1C(=O)N1[C@@H](c3ccccc3)CC[C@H]1C(=O)N[C@@H](Cc1ccccc1)C(=O)N2 [Ex. 48] (HELM PEPTIDE1{C.S.[dP].[O=C([C@@H]1CC[C@H](c2ccccc2)N1[*:1])[*:2]].F.C.T.K.S.D.P.P.I}$PEPTIDE1,PEPTIDE1,1:R3-6:R3|PEPTIDE1,PEPTIDE1,1:R1-13:R2$$$V2.0)	93	0.083	3	> 100		
CC[C@@H](C)[C@H]1NC(=O)[C@H](CO)NC(=O)[C@@H]2CSSC[C@H](NC(=O)[C@H](Cc3ccccc3)NC(=O)[C@@H]3CCCN3C1=O)C(=O)N[C@@H]([C@@H](C)O)C(=O)N[C@@H](CCCCN)C(=O)N[C@@H](CO)C(=O)N[C@@H](CC(=O)O)C(=O)N1CCC[C@H]1C(=O)N1CCC[C@H]1C(=O)N[C@@H]([C@@H](C)CC)C(=O)N2 [Ex. 50] (HELM PEPTIDE1{F.C.T.K.S.D.P.P.I.C.S.[dI].P}$PEPTIDE1,PEPTIDE1,2:R3-10:R3|PEPTIDE1,PEPTIDE1,1:R1-13:R2$$$V2.0)	94	0.089	0	> 100		
CCCC[C@@H]1NC(=O)[C@@H]2CCCN2C(=O)[C@H]2CCCN2C(=O)[C@H](Cc2ccc(O)cc2)NC(=O)[C@@H]2CSSC[C@H](NC1=O)C(=O)N[C@@H]([C@@H](C)O)C(=O)N[C@@H](C)C(=O)N[C@@H](CO)C(=O)N[C@@H](CC1CCCCC1)C(=O)N1CCC[C@H]1C(=O)N1CCC[C@H]1C(=O)N[C@@H](CCC(N)=O)C(=O)N2 [Ex. 82] (HELM PEPTIDE1{[Nle].C.T.A.S.[Cha].P.P.Q.C.Y.[dP].P}$PEPTIDE1,PEPTIDE1,2:R3-10:R3|PEPTIDE1,PEPTIDE1,1:R1-13:R2$$$V2.0)				0.018		IC50 [5]: 0.0729 µM; Tryptase at 100 μM % ([6]; at 100 μM): 44.5%
CCCC[C@@H]1NC(=O)[C@@H]2CCCN2C(=O)[C@@H](Cc2ccccc2)NC(=O)[C@H](Cc2ccc(O)cc2)NC(=O)[C@@H]2CSSC[C@H](NC1=O)C(=O)N[C@@H]([C@@H](C)O)C(=O)N[C@@H](C)C(=O)N[C@@H](CO)C(=O)N[C@@H]([C@@H](C)CC)C(=O)N1CCC[C@H]1C(=O)N1CCC[C@H]1C(=O)N[C@@H](CCC(N)=O)C(=O)N2 [Ex. 116] (HELM PEPTIDE1{A.S.I.P.P.Q.C.Y.[dF].P.[Nle].C.T}$PEPTIDE1,PEPTIDE1,7:R3-12:R3|PEPTIDE1,PEPTIDE1,1:R1-13:R2$$$V2.0)	0			0.046		IC50 [5]: 39.7 µM
CCCC[C@@H]1NC(=O)[C@@H]2CCCN2C(=O)[C@H]2CCCN2C(=O)[C@H](c2ccccc2)NC(=O)[C@@H]2CSSC[C@H](NC1=O)C(=O)N[C@@H]([C@@H](C)O)C(=O)N[C@@H](C)C(=O)N[C@@H](CO)C(=O)N[C@@H]([C@@H](C)CC)C(=O)N1CCC[C@H]1C(=O)N1CCC[C@H]1C(=O)N[C@@H](CCC(N)=O)C(=O)N2 [Ex. 136] (HELM PEPTIDE1{[Nle].C.T.A.S.I.P.P.Q.C.[Phg].[dP].P}$PEPTIDE1,PEPTIDE1,2:R3-10:R3|PEPTIDE1,PEPTIDE1,1:R1-13:R2$$$V2.0)			67.9		0	
CCCC[C@@H]1NC(=O)[C@@H]2CCCN2C(=O)[C@H]2CCCN2C(=O)[C@H](Cc2ccccc2)NC(=O)[C@@H]2CSSC[C@H](NC1=O)C(=O)N[C@@H]([C@@H](C)O)C(=O)N[C@@H](C)C(=O)N[C@@H](CO)C(=O)N[C@@H]([C@@H](C)CC)C(=O)N1CCC[C@H]1C(=O)N1CCC[C@H]1C(=O)N[C@@H](CCC(N)=O)C(=O)N2 [Ex. 137] (HELM PEPTIDE1{[Nle].C.T.A.S.I.P.P.Q.C.F.[dP].P}$PEPTIDE1,PEPTIDE1,2:R3-10:R3|PEPTIDE1,PEPTIDE1,1:R1-13:R2$$$V2.0)			68.7		5	
CCCC[C@@H]1NC(=O)[C@@H]2CCCN2C(=O)[C@H]2CCCN2C(=O)[C@H](Cc2ccc(O)cc2)NC(=O)[C@@H]2CSSC[C@H](NC1=O)C(=O)N[C@@H]([C@@H](C)O)C(=O)N[C@@H](C)C(=O)N[C@@H](CO)C(=O)N[C@@H](C1CCCCC1)C(=O)N1CCC[C@H]1C(=O)N1CCC[C@H]1C(=O)N[C@@H](CCC(N)=O)C(=O)N2 [Ex. 140] (HELM PEPTIDE1{[Nle].C.T.A.S.[O=C([C@@H](N[*:1])C1CCCCC1)[*:2]].P.P.Q.C.Y.[dP].P}$PEPTIDE1,PEPTIDE1,2:R3-10:R3|PEPTIDE1,PEPTIDE1,1:R1-13:R2$$$V2.0)			79.6		4.2	
CCCC[C@@H]1NC(=O)[C@H](CC(=O)O)NC(=O)[C@H]2CCCN2C(=O)[C@H](Cc2ccc(O)cc2)NC(=O)[C@@H]2CSSC[C@H](NC1=O)C(=O)N[C@@H]([C@@H](C)O)C(=O)N[C@@H](C)C(=O)N[C@@H](CO)C(=O)N[C@@H]([C@@H](C)CC)C(=O)N1CCC[C@H]1C(=O)N1CCC[C@H]1C(=O)N[C@@H](CCC(N)=O)C(=O)N2 [Ex. 168] (HELM PEPTIDE1{[Nle].C.T.A.S.I.P.P.Q.C.Y.[dP].D}$PEPTIDE1,PEPTIDE1,2:R3-10:R3|PEPTIDE1,PEPTIDE1,1:R1-13:R2$$$V2.0)			72.9		4.6	
CCCC[C@@H]1NC(=O)[C@@H]2CCCN2C(=O)[C@H]2CCCN2C(=O)[C@H](Cc2ccc(O)cc2)NC(=O)[C@@H]2CSSC[C@H](NC1=O)C(=O)N[C@@H]([C@@H](C)O)C(=O)N[C@@H](C)C(=O)N[C@@H](CO)C(=O)N[C@@H]([C@@H](C)CC)C(=O)N1CCC[C@H]1C(=O)N1CCC[C@H]1C(=O)N[C@@H](CCC(N)=O)C(=O)N2 [Ex. 179] (HELM PEPTIDE1{[Nle].C.T.A.S.I.P.P.Q.C.Y.[dP].P}$PEPTIDE1,PEPTIDE1,2:R3-10:R3|PEPTIDE1,PEPTIDE1,1:R1-13:R2$$$V2.0)			76.0	0.05	0	IC50 [3]: > 100 µM
CC(C)C[C@@H]1NC(=O)[C@H](CO)NC(=O)[C@H](CCCCN)NC(=O)[C@H]([C@@H](C)O)NC(=O)[C@@H]2CSSC[C@H](NC(=O)[C@H](CCCCN)NC(=O)[C@@H]3CCCN3C(=O)[C@@H]3CCCN3C1=O)C(=O)N[C@@H](Cc1ccc(O)cc1)C(=O)N1CCC[C@@H]1C(=O)N1CCC[C@H]1C(=O)N[C@@H](CCCNC(=N)N)C(=O)N2 [Ex. 196] (HELM PEPTIDE1{R.C.T.K.S.L.P.P.K.C.Y.[dP].P}$PEPTIDE1,PEPTIDE1,2:R3-10:R3|PEPTIDE1,PEPTIDE1,1:R1-13:R2$$$V2.0)		2.17				IC50 [3]: 0.07 µM; IC50 ([6]; read-out: Tryptase IC50): 0.052 µM
CCCC[C@@H]1NC(=O)[C@H](Cc2ccccc2)NC(=O)[C@H]2CCCN2C(=O)[C@H](Cc2ccc(O)cc2)NC(=O)[C@@H]2CSSC[C@H](NC1=O)C(=O)N[C@@H]([C@@H](C)O)C(=O)N[C@@H](C)C(=O)N[C@@H](CO)C(=O)N[C@@H]([C@@H](C)CC)C(=O)N1CCC[C@H]1C(=O)N1CCC[C@H]1C(=O)N[C@@H](CCC(N)=O)C(=O)N2 [compound 167] (HELM PEPTIDE1{[Nle].C.T.A.S.I.P.P.Q.C.Y.[dP].F}$PEPTIDE1,PEPTIDE1,2:R3-10:R3|PEPTIDE1,PEPTIDE1,1:R1-13:R2$$$V2.0)			60.2		0.2	
